Key:
human STING (hSTING) = biological target: T1, human STING (hSTING) (Homo sapiens, UniProt Q86WV6); test: Inhibition test of intracellular human STING (hSTING) pathway using SEAP reporter cells (HEK-Blue ISG), stimulation with Compound 3; format: cell-based; design: hSTING inhibitory activity: scale not given here; settings: Compound 3 10 nM stimulation, 21 hours; for IC50: read-out: hSTING inhibitory activity
T1 construct: host or cells: HEK-Blue ISG cells (HEK293-derived SEAP reporter line)
T1 sequence (Q86WV6 whole entry H232R): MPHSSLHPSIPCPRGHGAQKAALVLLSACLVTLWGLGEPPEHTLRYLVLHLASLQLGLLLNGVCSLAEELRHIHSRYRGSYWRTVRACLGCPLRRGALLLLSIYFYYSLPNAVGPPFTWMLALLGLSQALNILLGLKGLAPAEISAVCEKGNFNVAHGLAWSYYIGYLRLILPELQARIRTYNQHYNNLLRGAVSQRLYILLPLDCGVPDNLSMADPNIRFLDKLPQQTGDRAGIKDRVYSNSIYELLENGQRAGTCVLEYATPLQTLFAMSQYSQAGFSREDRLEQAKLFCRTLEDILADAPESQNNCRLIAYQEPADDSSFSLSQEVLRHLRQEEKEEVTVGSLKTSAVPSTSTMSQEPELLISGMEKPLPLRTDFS
Outline: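 IC50 derived by regressing inhibition rate against log compound concentration (0.1 to 10 μM final, added 1 h before agonist), with 0% and 100% set by wells without and with 10 nM Compound 3. SEAP colour reaction read after 21 h stimulation of HEK-Blue ISG reporter cells.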

[1] = tested on: STING activation (IFN-β production in THP-1 cells); test: Human IFN-β production inhibition test by cGAMP stimulation in THP-1 cells; format: cell-based; design: IFN-β bioinhibitory activity: scale not given here; settings: 2'3'-cGAMP transfection, 18 hours, IFN-β ELISA; for IC50: Homo sapiens, read-out: IFN-β bioinhibitory activity
Protocol: Human IFN-β production inhibition test by cGAMP stimulation
The inhibitory activity of test compounds against STING activation was evaluated by measuring the amount of IFN-β produced when human monocytic cell line THP-1 cells were stimulated with the endogenous ligand cGAMP.
After seeding THP-1 cells (ATCC) in a 96-well plate, PMA (Santa Cruz Biotechnology) adjusted to a concentration of 100 nM after addition was added, and incubated at 37° C. in a 5% CO2 incubator. It was cultured overnight (RPMI1640 medium containing 10% FBS, 50 U/mL penicillin/50 μg/mL streptomycin). A test compound solution adjusted to a final concentration of 0.001 to 1 μM was added to each well of this plate and cultured for 1 hour in a CO2 incubator (DMSO final concentration 0.1%). 0.12 μg/well of 2′3′-cGAMP (Invivogen, #tlrl-nacga23) was introduced into the cells by transfection using Lipofectamine2000 (Invitrogen) and cultured in a CO incubator for an additional 18 hours. After collecting the culture supernatant from each well, the amount of human IFN-β produced in the culture supernatant was measured by ELISA using R&D human IFN-β Duoset (R&D Systems).
Assuming that the human IFN-β production amount of the test compound-free and cGAMP-added group is 100%, and the human IFN-β production amount of the test compound-free and cGAMP-free group is 0%, the IC50 value was determined by regression analysis of the inhibitory rate determined from the amount of human IFN-β production at each compound concentration and the concentration of the test compound (logarithm).

Which hSTING inhibitory activity (human STING (hSTING)) does the source give for `Clc1ccc2[nH]c(Nc3c[nH]c4ccc(Br)nc34)nc2c1` [Embodiment 32, N-(5-bromo-1H-pyrrolo[3,2-b]pyridin-3-yl)-5-chloro-1H-benzo[d]imidazol-2-amine] here?
The hSTING inhibitory activity was “* *”.

And the IFN-β bioinhibitory activity [1]?
The IFN-β bioinhibitory activity was “* *”.

Which hSTING inhibitory activity (human STING (hSTING)) does the source give for `Fc1ccc2[nH]c(Nc3c[nH]c4ccc(Br)cc34)nc2c1` [Embodiment 33, N-(5-bromo-1H-indol-3-yl)-5-fluoro-1H-benzo[d]imidazol-2-amine] here?
Its hSTING inhibitory activity is “* * *”.

What about the IC50 [1] of the same molecule?
The IC50 was 0.1 to 1 µM.

Which results are given for `Clc1ccc2[nH]cc(Nc3nc4cc(Oc5ccccc5)ccc4[nH]3)c2n1` [Embodiment 35, N-(5-chloro-1H-pyrrolo[3,2-b]pyridin-3-yl)-5-phenoxy-1H-benzo[d]imidazol-2-amine]?
hSTING inhibitory activity (human STING (hSTING)): * * *; IC50 [1]: 0.1 to 1 µM

Which results are given for `COc1ccc2[nH]cc(Nc3nc4cc(Oc5ccccc5)ccc4[nH]3)c2n1` [Embodiment 36, N-(5-methoxy-1H-pyrrolo[3,2-b]pyridin-3-yl)-5-phenoxy-1H-benzo[d]imidazol-2-amine]?
hSTING inhibitory activity (human STING (hSTING)): * *; IFN-β bioinhibitory activity [1]: * *

What does the source list for `Clc1ccnc2c(Nc3nc4cc(Oc5ccccc5)ccc4[nH]3)c[nH]c12` [Embodiment 38, N-(7-chloro-1H-pyrrolo[3,2-b]pyridin-3-yl)-5-phenoxy-1H-benzo[d]imidazol-2-amine]?
hSTING inhibitory activity (human STING (hSTING)): * *; IC50 [1]: ≥ 1 µM

Which hSTING inhibitory activity (human STING (hSTING)) does the source give for `Cn1c(Nc2c[nH]c3ccc(Cl)nc23)nc2ccc(Oc3ccccc3)cc21` [Embodiment 44, N-(5-chloro-1H-pyrrolo[3,2-b]pyridin-3-yl)-1-methyl-6-phenoxy-1H-benzo[d]imidazol-2-amine] here?
Its hSTING inhibitory activity is “* *”.

And the IC50 [1]?
The IC50 was 0.1 to 1 µM.

With `CNn1c(Nc2c[nH]c3ccc(C)cc23)nc2cc(C(F)(F)F)cc(F)c21` [Embodiment 277, 7-fluoro-N1-methyl-N2-(5-methyl-1H-indol-3-yl)-5-(trifluoromethyl)-1H-benzo[d]imidazole-1,2-diamine] as the molecule, how does the hSTING inhibitory activity (human STING (hSTING)) read?
Its hSTING inhibitory activity is “* * *”.

How did the hSTING inhibitory activity (human STING (hSTING)) turn out when `CN(C)n1c(Nc2c[nH]c3ccc(F)c(F)c23)nc2cc(C(F)(F)F)cc(F)c21` [Embodiment 278, N2-(4,5-difluoro-1H-indol-3-yl)-7-fluoro-N1,N1-dimethyl-5-(trifluoromethyl)-1H-benzo[d] imidazole-1,2-diamine] was run?
Its hSTING inhibitory activity is “* *”.

Which hSTING inhibitory activity (human STING (hSTING)) does the source give for `CN(C)n1c(Nc2c[nH]c3cc(F)c(F)cc23)nc2cc(C(F)(F)F)cc(F)c21` [Embodiment 279, N2-(5,6-difluoro-1H-indol-3-yl)-7-fluoro-N1,N1-dimethyl-5-(trifluoromethyl)-1H-benzo[d] imidazole-1,2-diamine] here?
The hSTING inhibitory activity was “* *”.

`Cc1ccc2[nH]cc(Nc3nc4cc(C(F)(F)F)cc(F)c4n3N(C)C)c2c1` [Embodiment 280, 7-fluoro-N1,N1-dimethyl-N2-(5-methyl-1H-indol-3-yl)-5-(trifluoromethyl)-1H-benzo[d]imidazole-1,2-diamine] was tested. Which hSTING inhibitory activity (human STING (hSTING)) did it give?
Its hSTING inhibitory activity is “* * *”.

Which hSTING inhibitory activity (human STING (hSTING)) does the source give for `Brc1ccc2[nH]cc(Nc3nc4ccccc4[nH]3)c2c1` [Example 1, N-(5-bromo-1H-indol-3-yl)-1H-benzo[d]imidazol-2-amine] here?
The hSTING inhibitory activity was “* *”.

How did the IC50 (human STING (hSTING)) turn out when `c1ccc(-c2ccc3[nH]cc(Nc4nc5ccccc5[nH]4)c3c2)cc1` [Example 2, N-(5-phenyl-1H-indol-3-yl)-1H-benzo[d]imidazol-2-amine] was run?
Its IC50 is ≥ 10 µM.

For `Cc1cccc2[nH]c(Nc3c[nH]c4ccc(Br)cc34)nc12` [Example 5, N-(5-bromo-1H-indol-3-yl)-4-methyl-1H-benzo[d]imidazol-2-amine], which hSTING inhibitory activity (human STING (hSTING)) is on record?
The hSTING inhibitory activity was “* *”.

With `Brc1cccc2[nH]cc(Nc3nc4ccccc4[nH]3)c12` [Example 9, N-(4-bromo-1H-indol-3-yl)-1H-benzo[d]imidazol-2-amine] as the molecule, how does the IC50 (human STING (hSTING)) read?
The IC50 was ≥ 10 µM.

How did the hSTING inhibitory activity (human STING (hSTING)) turn out when `Brc1cnc2[nH]cc(Nc3nc4cc(Oc5ccccc5)ccc4[nH]3)c2c1` [Example 10, N-(5-bromo-1H-pyrrolo[2,3-b]pyridin-3-yl)-5-phenoxy-1H-benzo[d]imidazol-2-amine] was run?
Its hSTING inhibitory activity is “* *”.

With `Brc1cc2c(Nc3nc4cc(Oc5ccccc5)ccc4[nH]3)c[nH]c2cn1` [Example 11, N-(5-bromo-1H-pyrrolo[2,3-c]pyridin-3-yl)-5-phenoxy-1H-benzo[d]imidazol-2-amine] as the molecule, how does the IC50 (human STING (hSTING)) read?
The IC50 was 1 to 10 µM.

For `Brc1ccc2[nH]cc(Nc3nc4cc(Oc5cccnc5)ccc4[nH]3)c2c1` [Example 13, N-(5-bromo-1H-indol-3-yl)-5-(pyridin-3-yloxy)-1H-benzo[d]imidazol-2-amine], which hSTING inhibitory activity (human STING (hSTING)) is on record?
Its hSTING inhibitory activity is “* *”.

Which IC50 (human STING (hSTING)) does the source give for `Fc1ccc2[nH]cc(Nc3nc4ccccc4[nH]3)c2c1` [Example 14, N-(5-fluoro-1H-indol-3-yl)-1H-benzo[d]imidazol-2-amine] here?
Its IC50 is ≥ 10 µM.

How did the IC50 (human STING (hSTING)) turn out when `Clc1ccc2[nH]cc(Nc3nc4ccccc4[nH]3)c2c1` [Example 15, N-(5-chloro-1H-indol-3-yl)-1H-benzo[d]imidazol-2-amine] was run?
The IC50 was 1 to 10 µM.

`Ic1ccc2[nH]cc(Nc3nc4ccccc4[nH]3)c2c1` [Example 16, N-(5-iodo-1H-indol-3-yl)-1H-benzo[d]imidazol-2-amine] was tested. Which hSTING inhibitory activity (human STING (hSTING)) did it give?
Its hSTING inhibitory activity is “* *”.

`Brc1cccc2c(Nc3nc4ccccc4[nH]3)c[nH]c12` [Example 17, N-(7-bromo-1H-indol-3-yl)-1H-benzo[d]imidazol-2-amine] was tested. Which IC50 (human STING (hSTING)) did it give?
Its IC50 is ≥ 10 µM.

For `COC(=O)c1cccc2[nH]c(Nc3c[nH]c4ccc(Br)cc34)nc12` [Example 20, methyl 2-[(5-bromo-1H-indol-3-yl)amino]-1H-benzo[d]imidazole-4-carboxylate], which hSTING inhibitory activity (human STING (hSTING)) is on record?
The hSTING inhibitory activity was “* *”.

Which IC50 (human STING (hSTING)) does the source give for `Brc1cnc2[nH]cc(Nc3nc4cc(Oc5ccccc5)ccc4[nH]3)c2n1` [Example 21, 2-bromo-N-(5-phenoxy-1H-benzo[d]imidazol-2-yl)-5H-pyrrolo[2,3-b]pyrazin-7-amine] here?
The IC50 was ≥ 10 µM.

How did the hSTING inhibitory activity (human STING (hSTING)) turn out when `COC(=O)c1ccc2[nH]cc(Nc3nc4cc(Oc5ccccc5)ccc4[nH]3)c2c1` [Example 22, methyl 3-[(5-phenoxy-1H-benzo[d]imidazol-2-yl)amino]-1H-indole-5-carboxylate] was run?
Its hSTING inhibitory activity is “* *”.

Which hSTING inhibitory activity (human STING (hSTING)) does the source give for `O=S(=O)(c1ccccc1)c1ccc2[nH]c(Nc3c[nH]c4ccc(Br)cc34)nc2c1` [Example 23, N-(5-bromo-1H-indol-3-yl)-5-(phenylsulfonyl)-1H-benzo[d]imidazol-2-amine] here?
The hSTING inhibitory activity was “* *”.

With `O=C(O)c1ccc2[nH]cc(Nc3nc4cc(Oc5ccccc5)ccc4[nH]3)c2c1` [Example 27, 3-[(5-phenoxy-1H-benzo[d]imidazol-2-yl)amino]-1H-indole-5-carboxylic acid] as the molecule, how does the IC50 (human STING (hSTING)) read?
The IC50 was ≥ 10 µM.

With `O=C(c1ccc2[nH]cc(Nc3nc4cc(Oc5ccccc5)ccc4[nH]3)c2c1)N1CCOCC1` [Example 28, morpholino {3-[(5-phenoxy-1H-benzo[d]imidazol-2-yl)amino]-1H-indol-5-yl} methanone] as the molecule, how does the IC50 (human STING (hSTING)) read?
Its IC50 is ≥ 10 µM.

Which IC50 (human STING (hSTING)) does the source give for `C#CCNC(=O)c1ccc2[nH]cc(Nc3nc4cc(Oc5ccccc5)ccc4[nH]3)c2c1` [Example 29, 3-[(5-phenoxy-1H-benzo[d]imidazol-2-yl)amino]-N-(prop-2-yn-1-yl)-1H-indole-5-carboxamide] here?
Its IC50 is ≥ 10 µM.

Which hSTING inhibitory activity (human STING (hSTING)) does the source give for `O=C(Nc1ccccc1)c1ccc2[nH]cc(Nc3nc4cc(Oc5ccccc5)ccc4[nH]3)c2c1` [Example 30, 3-[(5-phenoxy-1H-benzo[d]imidazol-2-yl)amino]-N-phenyl-1H-indole-5-carboxamide] here?
The hSTING inhibitory activity was “* *”.
